Laboratory results taken from PubChem BioAssay AID280 (DTP/NCI, 2004).
Several values for one entry are separate records, joined by “and”; a condition that tells them apart may be missing. Equal entries are not always repeated. Toxic doses and inconclusive results are not listed.

System: nude mice, LOX melanoma ip, survival T/C
Test: NCI In Vivo Anticancer Drug Screen. Data for tumor model Human Amelanotic Melanoma (LOX) (intraperitoneal) in NU/NU BALB/C (nude) mice
Conditions: endpoint: median survival time, schedule: Q04DX003 (ip), higher = longer survival
Protocol: The antitumor activity of compounds was measured in mice bearing transplantable tumors. Survival or tumor size were measured and the results are expressed as the measurement made in the treated group (T) divided by the measurement made in the vehicle treated control group (C). The tumor model used in this assay is Human Amelanotic Melanoma (LOX) (intraperitoneal) in NU/NU BALB/C (nude) mice

[1] = dose: 37.5 mg/kg/injection, vehicle: Klucel (hydroxypropylcellulose) (HPC)
[2] = dose: 75.0 mg/kg/injection, vehicle: Klucel (hydroxypropylcellulose) (HPC)
[3] = dose: 150.0 mg/kg/injection, vehicle: Klucel (hydroxypropylcellulose) (HPC)
[4] = dose: 300.0 mg/kg/injection, vehicle: Klucel (hydroxypropylcellulose) (HPC)
[5] = dose: 50.0 mg/kg/injection, vehicle: saline with Tween-80
[6] = dose: 100.0 mg/kg/injection, vehicle: saline with Tween-80
[7] = dose: 200.0 mg/kg/injection, vehicle: saline with Tween-80
[8] = dose: 400.0 mg/kg/injection, vehicle: saline with Tween-80
[9] = dose: 120.0 mg/kg/injection, vehicle: Klucel (hydroxypropylcellulose) (HPC)
[10] = dose: 30.0 mg/kg/injection, vehicle: Klucel (hydroxypropylcellulose) (HPC)
[11] = dose: 25.0 mg/kg/injection, vehicle: saline with Tween-80
[12] = dose: 75.0 mg/kg/injection, vehicle: other
[13] = dose: 150.0 mg/kg/injection, vehicle: other
[14] = dose: 75.0 mg/kg/injection, vehicle: saline
[15] = dose: 150.0 mg/kg/injection, vehicle: saline

O=C1C(=O)c2cccnc2-c2ncccc21
T/C (dose: 2.5 mg/kg/injection, vehicle: Klucel (hydroxypropylcellulose) (HPC)): 94 % of control
T/C (dose: 5.0 mg/kg/injection, vehicle: Klucel (hydroxypropylcellulose) (HPC)): 101 % of control

CC1=CC=CC(C)(C)C(O)C1=O (stereo not given)
T/C (dose: 18.75 mg/kg/injection, vehicle: Klucel (hydroxypropylcellulose) (HPC)): 98 % of control
T/C [1]: 94 % of control
T/C [2]: 98 % of control
T/C [3]: 98 % of control
T/C [4]: 93 % of control

CCCCOCN(COCCCC)C12CC3CC(CC(C3)C1)C2
T/C [5]: 106 % of control
T/C [6]: 97 % of control
T/C [7]: 114 % of control
T/C [8]: 120 % of control

COc1ccc2c(ccc3oc([N+](=O)[O-])cc32)c1
T/C (dose: 100.0 mg/kg/injection, vehicle: Klucel (hydroxypropylcellulose) (HPC)): 121 % of control
T/C [9]: 170 % of control
T/C (dose: 400.0 mg/kg/injection, vehicle: Klucel (hydroxypropylcellulose) (HPC)): 86 % of control

CNC(=O)c1cccc2c(Nc3ccc(NS(C)(=O)=O)cc3OC)c3cccc(C)c3nc12
T/C (dose: 6.25 mg/kg/injection, vehicle: suspension in saline): 121 % of control
T/C (dose: 15.0 mg/kg/injection, vehicle: suspension in saline): 158 % of control
T/C (dose: 25.0 mg/kg/injection, vehicle: suspension in saline): 178 % of control
T/C (dose: 41.66 mg/kg/injection, vehicle: suspension in saline): 170 % of control
T/C (dose: 69.44 mg/kg/injection, vehicle: suspension in saline): 161 % of control

COC(=O)c1ccc(N=NN(C)COC(C)=O)cc1
T/C [10]: 118 % of control
T/C (dose: 51.8 mg/kg/injection, vehicle: Klucel (hydroxypropylcellulose) (HPC)): 175 % of control
T/C (dose: 86.4 mg/kg/injection, vehicle: Klucel (hydroxypropylcellulose) (HPC)): 193 % of control
T/C [9]: 193 % of control
T/C (dose: 144.0 mg/kg/injection, vehicle: Klucel (hydroxypropylcellulose) (HPC)): 262 % of control
T/C (dose: 240.0 mg/kg/injection, vehicle: Klucel (hydroxypropylcellulose) (HPC)): 220 % of control and 237 % of control

C=CCOc1cc2c(cc1C(C)c1ccc(OC)cc1)OCO2 (stereo not given)
T/C [1]: 101 % of control
T/C [2]: 96 % of control
T/C [3]: 109 % of control
T/C [4]: 112 % of control

CCC(NC(N)=O)C(CC)NC(N)=O (stereo not given)
T/C (dose: 3.13 mg/kg/injection, vehicle: saline with Tween-80): 103 % of control
T/C (dose: 6.25 mg/kg/injection, vehicle: saline with Tween-80): 109 % of control
T/C [11]: 105 % of control

Nc1n[nH]c2ccccc12
T/C [12]: 107 % of control
T/C [13]: 98 % of control

CN1CCN(CN2C(=O)C3C4C=CC(C3C2=O)C2C3C(=O)N(CN5CCN(C)CC5)C(=O)C3C42)CC1 (stereo not given)
T/C (dose: 12.5 mg/kg/injection, vehicle: water): 104 % of control
T/C (dose: 25.0 mg/kg/injection, vehicle: water): 109 % of control
T/C (dose: 50.0 mg/kg/injection, vehicle: water): 110 % of control
T/C (dose: 100.0 mg/kg/injection, vehicle: water): 106 % of control

c1cn[nH]c1
T/C [14]: 109 % of control
T/C [15]: 107 % of control

O=C(NC(Cc1ccc(I)cc1)C(=O)O)c1ccc(Br)cc1 (stereo not given)
T/C (dose: 18.75 mg/kg/injection, vehicle: other): 94 % of control
T/C (dose: 18.75 mg/kg/injection, vehicle: sodium bicarbonate): 111 % of control
T/C (dose: 37.5 mg/kg/injection, vehicle: other): 151 % of control
T/C (dose: 37.5 mg/kg/injection, vehicle: sodium bicarbonate): 107 % of control
T/C [12]: 91 % of control
T/C (dose: 75.0 mg/kg/injection, vehicle: sodium bicarbonate): 96 % of control
T/C [13]: 98 % of control
T/C (dose: 150.0 mg/kg/injection, vehicle: sodium bicarbonate): 86 % of control
T/C (dose: 300.0 mg/kg/injection, vehicle: sodium bicarbonate): 106 % of control

COc1cc2c(c(OC)c1OC)-c1ccc(OC)c(=O)cc1[C@@H](N)CC2
T/C (dose: 3.75 mg/kg/injection, vehicle: Klucel (hydroxypropylcellulose) (HPC)): 102 % of control
T/C (dose: 7.5 mg/kg/injection, vehicle: Klucel (hydroxypropylcellulose) (HPC)): 104 % of control
T/C (dose: 15.0 mg/kg/injection, vehicle: Klucel (hydroxypropylcellulose) (HPC)): 108 % of control and 113 % of control and 116 % of control
T/C [10]: 113 % of control and 114 % of control and 115 % of control
T/C (dose: 60.0 mg/kg/injection, vehicle: Klucel (hydroxypropylcellulose) (HPC)): 114 % of control
T/C [9]: 163 % of control

CN(C)CCCN=c1c2ccccc2n(C)c2[nH]c(=O)n(C)c(=O)c12
T/C (dose: 12.5 mg/kg/injection, vehicle: saline): 112 % of control
T/C (dose: 50.0 mg/kg/injection, vehicle: saline): 107 % of control

C/C(=N\NC(=S)N1CCC1)c1ccccn1
T/C (dose: 3.13 mg/kg/injection, vehicle: other): 99 % of control
T/C (dose: 6.25 mg/kg/injection, vehicle: other): 96 % of control
T/C (dose: 12.5 mg/kg/injection, vehicle: other): 95 % of control
T/C (dose: 25.0 mg/kg/injection, vehicle: other): 100 % of control

COc1ccc2oc3c(ccc[n+]3C)c(=O)c2c1
T/C [5]: 108 % of control
T/C [6]: 107 % of control
T/C [7]: 102 % of control
T/C [8]: 101 % of control

C=C(c1ccc(OC)c(OC)c1)c1nccc2cc(OC)c(OC)cc12
T/C [2]: 88 % of control
T/C [3]: 99 % of control
T/C [4]: 96 % of control

[NH-]C(CCC(N)=O)C(=O)O.[NH-]C(CCC(N)=O)C(=O)O.[Zn+2] (stereo not given)
T/C (dose: 12.5 mg/kg/injection, vehicle: saline with Tween-80): 94 % of control
T/C [11]: 94 % of control
T/C [5]: 118 % of control

CCN(CC)CC(=O)O[C@]1(CC)C(=O)OCc2c1cc1n(c2=O)Cc2cc3ccccc3nc2-1
T/C (dose: 18.75 mg/kg/injection, vehicle: water): 239 % of control

O=C(CCCCCCC(=O)ON1C(=O)CCC1=O)ON1C(=O)CCC1=O
T/C (dose: 75.0 mg/kg/injection, vehicle: saline with Tween-80): 117 % of control
T/C (dose: 150.0 mg/kg/injection, vehicle: saline with Tween-80): 101 % of control
T/C (dose: 300.0 mg/kg/injection, vehicle: saline with Tween-80): 98 % of control

NCc1cc(O)c(O)c(O)c1
T/C [14]: 107 % of control
T/C [15]: 101 % of control
T/C (dose: 600.0 mg/kg/injection, vehicle: saline): 102 % of control

O=C(CN1CCOCC1)Nc1nc(-c2ccc(Cl)cc2)cs1
T/C (dose: 75.0 mg/kg/injection, vehicle: DMSO): 119 % of control
T/C (dose: 150.0 mg/kg/injection, vehicle: DMSO): 112 % of control
T/C (dose: 300.0 mg/kg/injection, vehicle: DMSO): 88 % of control
T/C (dose: 600.0 mg/kg/injection, vehicle: DMSO): 95 % of control
T/C (dose: 1200.0 mg/kg/injection, vehicle: DMSO): 92 % of control

CC1=C[P+](c2ccccc2)(c2ccccc2)C=C(c2ccccc2)O1
T/C (dose: 0.38 mg/kg/injection, vehicle: saline): 97 % of control
T/C (dose: 3.0 mg/kg/injection, vehicle: saline): 88 % of control
